The results in this text go back to patent publication US6395773B1, “Anti-drug resistant strain agents and antichlamydia agents” (Japan Science and Technology Corporation, priority 1999, dated 2002).

≈ marks a conversion by molar mass, not a printed value.

In test [1] the test system is methicillin-resistant Staphylococcus aureus (MRSA). Put plainly: Effect on decreasing antibiotic resistance by concomitant use of FNQ3, MRSA. The settings on record: for MIC: Staphylococcus aureus, 24 h, read-out: MIC of antibiotic, −FNQ3; for MIC of antibiotic, +FNQ3: concomitant FNQ3, final concentration 0.5 μg/ml; for decrease of the resistance of MRSA against the antibiotic (fraction of MIC): with the Compound (FNQ3) 0.5 μg/ml.

Test [2] deals with methicillin-sensitive Staphylococcus aureus (MSSA). Kind of test: Effect on decreasing antibiotic resistance by concomitant use of FNQ3, MSSA. The settings on record: for MIC: Staphylococcus aureus, 24 h, read-out: MIC of antibiotic, −FNQ3; for MIC of antibiotic, +FNQ3: concomitant FNQ3, final concentration 0.5 μg/ml.
For test [3], the system named is fluconazole-resistant Candida albicans (FRCA). Kind of test: Proliferation inhibitory test for Candida albicans (agar medium MIC), FRCA. The settings on record: for MIC: Candida albicans.
Test [4] relates to fluconazole-sensitive Candida albicans (FSCA). Kind of test: Proliferation inhibitory test for Candida albicans (agar medium MIC), FSCA.
In a further test the test system is C. pneumoniae. Put plainly: microbe, parasite or virus in culture. The class given is cell-based. The settings on record: Chlamydia pneumoniae.
Another test concerns C. trachomatis. Kind of test: microbe, parasite or virus in culture. The test is classed as cell-based. The settings on record: Chlamydia trachomatis.
The subject of a further test is C. psittaci. Kind of test: microbe, parasite or virus in culture. The class given is cell-based. The settings on record: Chlamydia psittaci, strain Cal 10.
Test [5] concerns all tested strains of Chlamydia. The test is classed as cell-based. As to conditions: tendency; McCoy and WI38 versus HeLa229.
The subject of the next test is Staphylococcus aureus. Kind of test: FNQ3 alone, growth of Staphylococcus aureus. As to conditions: 0.5 μg/ml.
Test [6] concerns methicillin-resistant Staphylococcus aureus (MRSA). Kind of test: Proliferation inhibitory test for Staphylococcus aureus (agar medium MIC), MRSA. As to conditions: for MIC: Staphylococcus aureus, MRSA.
Test [7] has as its system methicillin-sensitive Staphylococcus aureus (MSSA). Kind of test: Proliferation inhibitory test for Staphylococcus aureus (agar medium MIC), MSSA. As to conditions: for MIC: Staphylococcus aureus, MSSA.

For `CC1(C)S[C@@H]2[C@H](NC(=O)[C@H](N)c3ccccc3)C(=O)N2[C@H]1C(=O)O` [Ampicillin], in test [1], the MIC worked out at 32 mg/L; the “MIC of antibiotic, +FNQ3” value came to 4 mg/L; the “decrease of the resistance of MRSA against the antibiotic (fraction of MIC)” value (from here on “decrease of the resistance … (fraction of MIC)”) is given as “½ to ¼”. Further, in test [2], the MIC was found to be 32 mg/L and the “MIC of antibiotic, +FNQ3” value was in the range of 16 to 32 mg/L.

Consider `CN(C)CCn1nnnc1SCC1=C(C(=O)O)N2C(=O)[C@@H](NC(=O)Cc3csc(N)n3)[C@H]2SC1` [Cefotiam], for which, in [1], the MIC is 32 mg/L and the “MIC of antibiotic, +FNQ3” value was 16 to 32 mg/L. Moreover, in test [2], the MIC lay in the range of 0.25 to 0.5 mg/L and the “MIC of antibiotic, +FNQ3” value worked out at 0.25 mg/L.

For `CC[C@H]1OC(=O)[C@H](C)[C@@H](O[C@H]2C[C@@](C)(OC)[C@@H](O)[C@H](C)O2)[C@H](C)[C@@H](O[C@@H]2O[C@H](C)C[C@H](N(C)C)[C@H]2O)[C@](C)(OC)C[C@@H](C)C(=O)[C@H](C)[C@@H](O)[C@]1(C)O` [Clarithromycin], in [1], the MIC is 16 mg/L and the “MIC of antibiotic, +FNQ3” value amounted to 16 mg/L. In [2], the MIC came to 0.5 mg/L and the “MIC of antibiotic, +FNQ3” value is 0.5 to 1 mg/L.

On to `OC(Cn1cncn1)(Cn1cncn1)c1ccc(F)cc1F` [FLCZ, fluconazole, reference compound], for which the MIC was over 64 mg/L in test [3] (FRCA strain CA383); over 64 mg/L in test [3] (FRCA strain CA8941); over 64 mg/L in [3] (FRCA strain DUNC136); 32 mg/L (≈ 104 µM) in [3] (FRCA strain MCV7); over 64 mg/L in test [3] (FRCA strain S78941); over 64 mg/L in test [3] (FRCA strain T77042). Also, the MIC came to 0.03 mg/L (≈ 0.098 µM) in test [4] (Candida albicans); 0.13 mg/L (≈ 0.424 µM) in test [4] (Candida albicans, TIMM0239); 0.06 mg/L (≈ 0.196 µM) in [4] (Candida albicans, TIMM1756); 0.06 mg/L (≈ 0.196 µM) in test [4] (Candida albicans, TIMM1850); 0.03 mg/L (≈ 0.098 µM) in test [4] (FSCA strain TA).

Regarding `Cc1cc2c(o1)C(=O)c1ccccc1C2=O` [FNQ3, 2-methylnaphtho[2,3-b]furan-4,9-dione], the MIC came to 0.25 mg/L (≈ 1.18 µM) against C. pneumoniae (strain KKpn-1, HeLa229 cells); 0.25 mg/L (≈ 1.18 µM) in the test with C. pneumoniae (strain KKpn-1, McCoy cells); 0.6 mg/L (≈ 2.83 µM) against C. pneumoniae (strain TW-183, HeLa229 cells); 1 mg/L (≈ 4.71 µM) in the test on C. trachomatis (strain D, HeLa229 cells); 1 mg/L (≈ 4.71 µM) with C. trachomatis (strain F, HeLa229 cells); 1 mg/L (≈ 4.71 µM) against C. trachomatis (strain L2, HeLa229 cells). The MIC was determined as 0.6 mg/L (≈ 2.83 µM) with C. trachomatis (strain L2, McCoy cells); 0.5 mg/L (≈ 2.36 µM) against C. trachomatis (strain L2, WI 38 cells); 1 mg/L (≈ 4.71 µM) in the test with C. psittaci (HeLa229 cells); 0.5 mg/L (≈ 2.36 µM) in the test with C. psittaci (McCoy cells); 0.25 mg/L (≈ 1.18 µM) in the test on C. psittaci (WI 38 cells). Further, in [5], the “MIC with McCoy and WI38 cells relative to HeLa229 cells” value is “approximately ½”. Moreover, the “influence on the growth of Staphylococcus aureus” value in the test on Staphylococcus aureus is “no influence on the growth”.

On to `Cc1cc2c(o1)C(=O)c1c(O)cccc1C2=O` [FNQ13, 8-hydroxy-2-methylnaphtho[2,3-b]furan-4,9-dione], for which the MIC in test [3] (FRCA strain CA383) was found to be 2 mg/L (≈ 8.76 µM); in [3] (FRCA strain CA8941), 8 mg/L (≈ 35.1 µM); in test [3] (FRCA strain DUNC136), 4 mg/L (≈ 17.5 µM); in [3] (FRCA strain MCV7), 2 mg/L (≈ 8.76 µM); in test [3] (FRCA strain S78941), 4 mg/L (≈ 17.5 µM); in [3] (FRCA strain T77042) it was 2 mg/L (≈ 8.76 µM). Moreover, the MIC in test [4] (Candida albicans) amounted to 4 mg/L (≈ 17.5 µM); in test [4] (Candida albicans, TIMM0239) it was 2 mg/L (≈ 8.76 µM); in test [4] (Candida albicans, TIMM1756), 2 mg/L (≈ 8.76 µM); in test [4] (Candida albicans, TIMM1850) it was 2 mg/L (≈ 8.76 µM); in test [4] (FSCA strain TA), 4 mg/L (≈ 17.5 µM); in test [6] (MRSA strain 1 (Patient)), 6.25 mg/L (≈ 27.4 µM). In addition, the MIC was found to be 3.13 mg/L (≈ 13.7 µM) in test [6] (MRSA strain 2 (Patient)); 3.13 mg/L (≈ 13.7 µM) in test [6] (MRSA strain 3 (Patient)); 12.5 mg/L (≈ 54.8 µM) in [6] (MRSA strain 4 (Patient)); 12.5 mg/L (≈ 54.8 µM) in [6] (MRSA strain 5 (Patient)); 3.13 mg/L (≈ 13.7 µM) in test [6] (MRSA strain 6 (Patient)); 6.25 mg/L (≈ 27.4 µM) in [6] (MRSA strain 7 (Patient)). The MIC in test [6] (MRSA strain 8 (Patient)) is 3.13 mg/L (≈ 13.7 µM); in test [6] (MRSA strain 9 (Patient)), 6.25 mg/L (≈ 27.4 µM); in [6] (MRSA strain 10 (Patient)), 3.13 mg/L (≈ 13.7 µM); in test [6] (MRSA strain 11 (Patient)) it was 6.25 mg/L (≈ 27.4 µM); in [6] (MRSA strain 12 (N133)) it was 1.56 mg/L (≈ 6.84 µM); in test [6] (MRSA strain 13 (OF4)) it was 1.56 mg/L (≈ 6.84 µM). Also, the MIC in [6] (MRSA strain 14 (N295)) amounted to 6.25 mg/L (≈ 27.4 µM); in test [6] (read-out: MIC, Mean ± standard deviation, mean over 14 MRSA strains), 5.36 mg/L (≈ 23.5 µM); in test [7] (MSSA strain 1 (Patient)), 25 mg/L (≈ 110 µM); in test [7] (MSSA strain 2 (Patient)), 6.25 mg/L (≈ 27.4 µM); in [7] (MSSA strain 3 (Patient)), 12.5 mg/L (≈ 54.8 µM); in test [7] (MSSA strain 4 (Patient)) it was 12.5 mg/L (≈ 54.8 µM). In addition, the MIC in test [7] (MSSA strain 5 (Patient)) was 12.5 mg/L (≈ 54.8 µM); in test [7] (MSSA strain 6 (Patient)) it was 6.25 mg/L (≈ 27.4 µM); in [7] (MSSA strain 7 (Patient)) it was 6.25 mg/L (≈ 27.4 µM); in test [7] (MSSA strain 8 (Patient)), 12.5 mg/L (≈ 54.8 µM); in test [7] (MSSA strain 9 (Patient)) it was 12.5 mg/L (≈ 54.8 µM); in test [7] (MSSA strain 10 (Patient)), 12.5 mg/L (≈ 54.8 µM). Besides, the MIC in test [7] (MSSA strain 11 (Patient)) worked out at 12.5 mg/L (≈ 54.8 µM); in test [7] (MSSA strain 12 (1840)) it was 12.5 mg/L (≈ 54.8 µM); in [7] (read-out: MIC, Mean ± standard deviation, mean over 12 MSSA strains, p < 0.01) it was 12 mg/L (≈ 52.5 µM). For the same molecule, the “antibacterial activity against FRCA compared with FSCA” value in [3] (FRCA (resistant strain) versus FSCA (sensitive strain)) is recorded as “same degree of antibacterial activity”. Moreover, the “MIC, Mean ± standard deviation” value in test [6] (mean over 14 MRSA strains) came out at 5.36 ± 3.5 mg/L (≈ 23.5 µM); in [7] (mean over 12 MSSA strains, p < 0.01), 11.98 ± 4.9 mg/L (≈ 52.5 µM).

Regarding `C[C@H]1COc2c(N3CCN(C)CC3)c(F)cc3c(=O)c(C(=O)O)cn1c23` [Levofloxacin], in test [1], the MIC stood at 8 mg/L and the “MIC of antibiotic, +FNQ3” value was 4 mg/L. Moreover, in test [2], the MIC came to 0.25 mg/L and the “MIC of antibiotic, +FNQ3” value worked out at 0.25 mg/L.

Take `CN(C)c1ccc(O)c2c1C[C@H]1C[C@H]3[C@H](N(C)C)C(O)=C(C(N)=O)C(=O)[C@@]3(O)C(O)=C1C2=O` [Minacycline]: in test [1], the MIC came out at 8 mg/L and the “MIC of antibiotic, +FNQ3” value was 2 to 4 mg/L. In addition, in test [2], the MIC was 0.25 mg/L and the “MIC of antibiotic, +FNQ3” value came out at 0.25 mg/L.

For `CC[C@H]1OC(=O)[C@H](C)[C@@H](O[C@H]2C[C@@](C)(OC)[C@@H](O)[C@H](C)O2)[C@H](C)[C@@H](O[C@@H]2O[C@H](C)C[C@H](N(C)C)[C@H]2O)[C@](C)(O)C[C@@H](C)/C(=N\OCOCCOC)[C@H](C)[C@@H](O)[C@]1(C)O` [Roxithromycin], in [1], the MIC is 16 mg/L and the “MIC of antibiotic, +FNQ3” value was found to be 16 mg/L. Besides, in test [2], the MIC worked out at 1 mg/L and the “MIC of antibiotic, +FNQ3” value was determined as 1 mg/L.

For the molecule `CN[C@H](CC(C)C)C(=O)N[C@H]1C(=O)N[C@@H](CC(N)=O)C(=O)N[C@H]2C(=O)N[C@H]3C(=O)N[C@H](C(=O)N[C@H](C(=O)O)c4cc(O)cc(O)c4-c4cc3ccc4O)[C@H](O)c3ccc(c(Cl)c3)Oc3cc2cc(c3O[C@@H]2O[C@H](CO)[C@@H](O)[C@H](O)[C@H]2O[C@H]2C[C@](C)(N)[C@H](O)[C@H](C)O2)Oc2ccc(cc2Cl)[C@H]1O` [Vancomycin], in test [1], the MIC stood at 2.5 mg/L; the “MIC of antibiotic, +FNQ3” value was in the range of 0.6 to 1.25 mg/L; the “decrease of the resistance … (fraction of MIC)” value is “½ to ¼”. Further, in test [2], the MIC is 0.6 mg/L and the “MIC of antibiotic, +FNQ3” value is 0.6 mg/L.

Turning to `N[C@@H](C(=O)N[C@@H]1C(=O)N2C(C(=O)O)=C(Cl)CS[C@H]12)c1ccccc1` [cefaclor], in [1], the MIC worked out at 64 mg/L; the “MIC of antibiotic, +FNQ3” value was 16 mg/L; the “decrease of the resistance … (fraction of MIC)” value is “½ to ¼”. Also, in test [2], the MIC is 1 mg/L and the “MIC of antibiotic, +FNQ3” value was 1 mg/L.
